Source: article PMC8151276, “An Integrated Approach toward NanoBRET Tracers for Analysis of GPCR Ligand Engagement” (Molecules, 2021)

Molecular target: T1, HTR1F (Homo sapiens, UniProt P30939)
T1 construct: purchased Promega (in-house HiBiT-GPCR construct library, NanoBRET)
T1 sequence (P30939 1-366): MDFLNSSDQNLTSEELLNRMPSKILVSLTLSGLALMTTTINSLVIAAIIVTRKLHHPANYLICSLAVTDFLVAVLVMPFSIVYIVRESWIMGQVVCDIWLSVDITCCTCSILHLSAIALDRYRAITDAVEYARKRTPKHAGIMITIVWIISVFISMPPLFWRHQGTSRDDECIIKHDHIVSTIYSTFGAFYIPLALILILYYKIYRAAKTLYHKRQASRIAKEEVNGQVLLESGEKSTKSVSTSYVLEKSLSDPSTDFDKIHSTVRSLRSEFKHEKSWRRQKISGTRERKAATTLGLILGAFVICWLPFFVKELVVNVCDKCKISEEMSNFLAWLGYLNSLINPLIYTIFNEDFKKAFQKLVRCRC
Test: NanoBRET screen HiBiT-HTR1F in HEK293
Assay type: binding
Experimental: Each tracer candidate was screened across the entire library of HiBiT-GPCR constructs using NanoBRET as the detection modality. As depicted in Figure 4A, the specificity of interactions was evaluated through decrease in BRET due to competitive displacement of a bound tracer by excess parental compound. Each tracer was analyzed for binding to each HiBiT-GPCR fusion in the absence and in the presence of competing parental compound. Briefly, HEK293 cells were transfected with HiBiT-GPCR constructs diluted into promoterless DNA to reduce expression and maximize translocation to the cell surface. Each tracer candidate was then screened at concentrations of 1 μM and 0.1 μM across cells expressing these fusions. Cells were treated for 1.5 h with tracer either alone or in the presence of 20 μM competing parental compound (i.e., control). BRET was measured upon addition of purified LgBiT and subsequent complementation with HiBiT genetically fused to a GPCR. The specificity of interactions was assessed through a decrease in BRET signal due to competitive displacement of the bound tracer. To further gauge the robustness of these interactions, the fold response over the control (i.e., BRETtracer/BRETcontrol) was calculated. We chose a 1.5-fold response, which translates to ≥7-fold signal over noise as the minimal threshold required to score an interaction as positive.
HiBiT-GPCR DNA constructs were diluted in 10 mM Tris pH 8 to a final concentration of 0.01 μg/μL, arrayed in 96-well plates and stored at −20 °C. For transfection, HEK293 cells were suspended in Opti-MEM (without phenol red) supplemented with 2% fetal bovine serum (Seradigm) and 100 units/mL penicillin–streptomycin (Gibco) at a final concentration of 220,000 cells/mL and dispensed into white 96-well plates at 90 μL/well. Subsequent transfections and screens were carried using an Agilent Bravo Automated Liquid Handling Platform. First, the 96-well HiBiT DNA arrays were diluted 25-fold in Opti-MEM (without serum or phenol red) to a final concentration of 0.0004 μg/μL and 20 μL of the diluted DNAs were transferred into new 96-well plates. Next, promoterless carrier DNA (1 μg/μL) was diluted 25-fold (0.04 μg/μL) and then dispensed into the diluted arrays at 20 μL/well. Following brief mixing, Viafect transfection reagent (Promega) diluted 16-fold into Opti-MEM was dispensed into the plates at 40 μL/well. After mixing by pipetting, plates were incubated for 10 min on the pipetting station deck. The DNA-transfection reagent complexes were then added to plates containing cells. To facilitate the screen, 10 μL of DNA-transfection reagent complexes were added in duplicates to the top 4 and bottom 4 rows, resulting in two identical 48-well arrays per plate. Plates with transfected cells were incubated for 18–20 h at 37 °C/5% CO2. A screen of each tracer across the entire library using two different concentrations requires duplicate plates of transfected cells. Depending on the number of tracers being screened, transfections can be scaled up using the same ratios. The next day, for each tracer, four 20× screening solutions in tracer dilution buffer (Promega) were prepared: two duplicates at final concentration of 20 μM and two duplicates at a final concentration of 2 μM. […] The four resulting solutions were diluted 4-fold in Opti-MEM without serum or phenol red to generate 5× solutions (5 µM and 0.5 µM tracer +/− 100 μM competing compound). To screen the library, a BioTek MultiFlo FX liquid dispenser was used to dispense 22.5 µL of tracer solution to the top 4 rows and 22.5 µL tracer + competing compound solution to the 4 bottom rows. Plates were briefly mixed on an orbital shaker and incubated for 1.5 h at room temperature. […] Plates were briefly mixed on an orbital shaker and incubated for 15 min to allow complementation.

Structure (SMILES)	NanoBRET Fold Response (HTR1F, tracer 0.1μM)	NanoBRET Fold Response (HTR1F, tracer 1μM)	other results
Cc1nc2n(c(=O)c1CCN1CCC(c3noc4cc(F)ccc34)CC1)CCCC2OC(=O)NCCOCCOCCOCCOCCNC(=O)CCc1ccc2n1[B-](F)(F)[N+]1=C(c3ccc[nH]3)C=CC1=C2 (stereo not drawn) [Risperidone-2-NB590]	0.98	1.07	
CCOC(=O)c1cc(C#N)c(N2CCC(C(=O)NS(=O)(=O)Cc3ccccc3/C=C/C(=O)NCCNC(=O)CCc3ccc4n3[B-](F)(F)[N+]3=C(c5ccc[nH]5)C=CC3=C4)CC2)nc1C [AZD1283-1-NB590]			NanoBRET Fold Response (HTR1F, 0.1μM): 1.04; NanoBRET Fold Response (HTR1F, 1μM): 1.02
Cc1cc2c(s1)Nc1ccccc1N=C2N1CCN(CCCNC(=O)CCOCCOCCOCCOCCNC(=O)CCc2ccc3n2[B-](F)(F)[N+]2=C(c4ccc[nH]4)C=CC2=C3)CC1 [Olanzapine-a-2-NB590]	1.01	1.21	
COc1ccccc1N1CCN(CCCCN2C(=O)c3ccc(CNC(=O)CCOCCNC(=O)c4ccc(CNC(=O)CCc5ccc6n5[B-](F)(F)[N+]5=C(c7ccc[nH]7)C=CC5=C6)cc4)cc3C2=O)CC1 [NAN-190-3-NB590]	2.92	1.93	
CC(C)N(CC[C@H](c1ccccc1)c1cc(CCNC(=O)CCOCCOCCOCCOCCNC(=O)CCc2ccc3n2[B-](F)(F)[N+]2=C(c4ccc[nH]4)C=CC2=C3)ccc1O)C(C)C [Tolterodine-2-NB590]	0.90	1.13	
CN(C)CCC=C1c2ccccc2CCc2ccc(C(=O)NCCNC(=O)CCOCCOCCOCCOCCNC(=O)CCc3ccc4n3[B-](F)(F)[N+]3=C(c5ccc[nH]5)C=CC3=C4)cc21 [Amitriptyline-b-2-NB590]			NanoBRET Fold Response (tracer at 0.1μM, listed as amitriptyline-b-2-NB590): 1.43
O=C(CCOCCOCCOCCOCCNC(=O)CCc1ccc2n1[B-](F)(F)[N+]1=C(c3ccc[nH]3)C=CC1=C2)NCCCN1CCN(C2=Nc3ccccc3Oc3ccc(Cl)cc32)CC1 [Loxapine-a-2-NB590]	1.01	1.07	
CN(C)CCC=C1c2ccccc2CCc2ccc(C(=O)NCCNC(=O)CCOCCOCCOCCOCCNC(=O)CCc3ccc4n3[B-](F)(F)[N+]3=C(c5ccc[nH]5)C=CC3=C4)cc21 [Amitriptyline-a-2-NB590]			NanoBRET Fold Response (tracer at 0.1μM): 0.97; NanoBRET Fold Response (tracer at 1μM): 1.02
O=C(CCc1ccc2n1[B-](F)(F)[N+]1=C(c3ccc[nH]3)C=CC1=C2)NCCOCCOCCNC(=O)OCCOCCN1CCN(C2=Nc3ccccc3Sc3ccccc32)CC1 [Quetiapine-a-2-NB590]	1.01	0.95	
COc1ccccc1N1CCN(CCCCN2C(=O)c3ccc(CNC(=O)CCOCCOCCOCCOCCNC(=O)CCc4ccc5n4[B-](F)(F)[N+]4=C(c6ccc[nH]6)C=CC4=C5)cc3C2=O)CC1 [NAN-190-2-NB590]	1.29	2.39	
CN1CCN(C2=Nc3cc(Cl)ccc3N(CC(=O)NCCOCCOCCOCCOCCNC(=O)CCc3ccc4n3[B-](F)(F)[N+]3=C(c5ccc[nH]5)C=CC3=C4)c3ccccc32)CC1 [Clozapine-c-2-NB590]			NanoBRET Fold Response (HTR1F, 0.1μM tracer): 1.02; NanoBRET Fold Response (HTR1F, 1μM tracer): 0.91
N#CN/C(=N\CCNC(=O)c1ccc(N)cc1)NCCCOc1cccc(CN2CCCCC2)c1 [Aminopotentidine (unmodified)]			NanoBRET Fold Response (HTR1F, other tracers/Aminopotentidine (unmodified), 0.1μM): 1.04; NanoBRET Fold Response (HTR1F, other tracers/Aminopotentidine (unmodified), 1μM): 1.21
COc1ccc2[nH]c(-c3ccc(CNC(=O)CCOCCOCCOCCOCCNC(=O)CCc4ccc5n4[B-](F)(F)[N+]4=C(c6ccc[nH]6)C=CC4=C5)cc3)c(CCNC(C)=O)c2n1 [AzomelatoninICO9-2-NB590]			NanoBRET Fold Response (0.1μM tracer): 0.92; NanoBRET Fold Response (1μM tracer): 0.95
O=C(CCOCCOCCOCCOCCNC(=O)CCc1ccc2n1[B-](F)(F)[N+]1=C(c3ccc[nH]3)C=CC1=C2)NCCCN1CCN(C2=Nc3cc(Cl)ccc3Nc3ccccc32)CC1 [Clozapine-a-2-NB590]			NanoBRET Fold Response (HTR1F, 0.1μM tracer): 1.77; NanoBRET Fold Response (HTR1F, 1μM tracer): 2.34
CCCn1c(=O)c2[nH]c(-c3ccc(OCC(=O)NCCNC(=O)CCOCCNC(=O)c4ccc(CNC(=O)CCc5ccc6n5[B-](F)(F)[N+]5=C(c7ccc[nH]7)C=CC5=C6)cc4)cc3)nc2n(CCC)c1=O [XAC-3-NB590]	1.07	1.05	
O=C(CCc1ccc2n1[B-](F)(F)[N+]1=C(c3ccc[nH]3)C=CC1=C2)NCc1ccc(C(=O)NCCOCCOCCNCC(O)COc2cccc3ccccc23)cc1 (stereo not drawn) [Propranolol-3-NB590]			NanoBRET Fold Response (HTR1F, 0.1μM): 1.08; NanoBRET Fold Response (HTR1F, 1μM): 0.99
O=C(CCc1ccc2n1[B-](F)(F)[N+]1=C(c3ccc[nH]3)C=CC1=C2)NCc1ccc(C(=O)NCCOCCC(=O)N[C@@H]2CC[C@@]3(O)[C@H]4Cc5ccc(O)c6c5[C@@]3(CCN4CC3CC3)[C@H]2O6)cc1 [Naltrexone-3-NB590]	1.35	1.30	
CN(CCC=C1c2ccccc2CCc2ccccc21)C(=O)CCOCCOCCOCCOCCNC(=O)CCc1ccc2n1[B-](F)(F)[N+]1=C(c3ccc[nH]3)C=CC1=C2 [Amitriptyline-e-2-NB590]			NanoBRET Fold Response (tracer at 1μM): 1.02
N#CN=C(NCCCOc1cccc(CN2CCCCC2)c1)NCCNC(=O)CCOCCOCCOCCOCCNC(=O)CCc1ccc2n1[B-](F)(F)[N+]1=C(c3ccc[nH]3)C=CC1=C2 [Aminopotentidine-2-NB590]	1.07	1.05	
COc1ccc2c(n1)c(CCNC(C)=O)cn2CCNC(=O)CCc1ccc2n1[B-](F)(F)[N+]1=C(c3ccc[nH]3)C=CC1=C2 [Azamelatonin-1-NB590]			NanoBRET Fold Response (0.1μM tracer): 0.79; NanoBRET Fold Response (1μM tracer): 0.79
CC(C)N(CC[C@H](c1ccccc1)c1cc(CCNC(=O)c2ccc(CNC(=O)CCc3ccc4n3[B-](F)(F)[N+]3=C(c5ccc[nH]5)C=CC3=C4)cc2)ccc1O)C(C)C [Tolterodine-BZ-NB590]	1.24	1.63	
CN1CCN(C2=Nc3cc(Cl)ccc3Nc3ccc(CNC(=O)CCOCCOCCOCCOCCNC(=O)CCc4ccc5n4[B-](F)(F)[N+]4=C(c6ccc[nH]6)C=CC4=C5)cc32)CC1 [Clozapine-b-2-NB590]			NanoBRET Fold Response (HTR1F, 0.1μM tracer): 1.00; NanoBRET Fold Response (HTR1F, 1μM tracer): 1.28
